Substitutions are numbered along the chain they refer to.
Assays:
Format in all cases: cell-based
[1] = biological target: T1, mBest2 (mouse bestrophin-2) (Mus musculus, UniProt Q8BGM5, F80R); assay: whole-cell patch clamp, inhibition of Cl current in HEK293
T1 sequence (Q8BGM5 1-508 F80R): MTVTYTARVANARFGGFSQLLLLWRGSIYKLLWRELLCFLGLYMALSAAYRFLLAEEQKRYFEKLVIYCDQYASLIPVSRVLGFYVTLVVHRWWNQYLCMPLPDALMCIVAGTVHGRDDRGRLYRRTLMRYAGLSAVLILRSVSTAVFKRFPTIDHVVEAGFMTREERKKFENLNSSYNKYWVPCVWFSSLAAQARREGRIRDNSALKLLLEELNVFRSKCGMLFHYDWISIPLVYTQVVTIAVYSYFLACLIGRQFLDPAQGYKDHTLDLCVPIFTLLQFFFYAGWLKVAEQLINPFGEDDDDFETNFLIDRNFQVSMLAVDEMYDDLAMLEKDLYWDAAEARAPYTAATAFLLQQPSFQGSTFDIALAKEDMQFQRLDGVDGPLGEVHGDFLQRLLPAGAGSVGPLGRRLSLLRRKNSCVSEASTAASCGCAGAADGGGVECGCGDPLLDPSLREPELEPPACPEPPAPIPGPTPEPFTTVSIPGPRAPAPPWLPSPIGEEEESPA

[2] = biological target: T2, mBest2 (mouse bestrophin-2) (Mus musculus, UniProt Q8BGM5, S79T); assay: whole-cell patch clamp, block of Cl current in HEK293
T2 sequence (Q8BGM5 1-508 S79T): T1 sequence (Q8BGM5 1-508 F80R) with S79T, R80F

[3] = biological target: T3, mBest2 (mouse bestrophin-2) (Mus musculus, UniProt Q8BGM5); assay: as above
T3 sequence (Q8BGM5 1-508): T1 sequence (Q8BGM5 1-508 F80R) with R80F

Structure (SMILES)	Ki [1] [mM]	IC50 [2] [mM]	IC50 [3] [mM]
O=S(=O)(O)c1cc(N=C=S)ccc1/C=C/c1ccc(N=C=S)cc1S(=O)(=O)O [DIDS]	0.016		
N#CS [SCN]		18.5 ± 2.7	9.8 ± 1.1
